Reference: patent US20240059689A1, “PURINE DERIVATIVES AS ANTICANCER AGENTS” (Tango Therapeutics, Inc., priority 2021, published 2024)

How the values were obtained:
[1] = target: USP1-UAF1 (Homo sapiens, UniProt O94782); assay: Ubiquitin Rhodamine assay of USP1-UAF1 activity; assay type: biochemical
Description: Certain compounds of the disclosure were assessed for USP1-UAF1 activity in a Ubiquitin Rhodamine assay as described in Biology Example 1.

[2] = tested on: MDA-MB-436; assay: Viability assay, BRCA1 mutant cell line MDA-MB-436; assay type: cell-based; conditions: Homo sapiens, MDA-MB-436, viability, BRCA1 mutant MDA-MB-436; read-out: MDA-MB-436 rel IC50
Description: (§1) Table 1 also indicates IC50 values in a viability assay for a non-isogenic pair of BRCA1 mutant (column 5-MDA-MB-436) and BRCA1 WT (column 6—HCC1954) cell lines. These values indicate the effect of treatment with compound on cell survival.

[3] = tested on: HCC1954; assay: Viability assay, BRCA1 WT cell line HCC1954; assay type: cell-based; conditions: Homo sapiens, HCC1954, viability, read-out: HCC1954 rel IC50
Description: as §1

[4] = tested on: monoubiquitinated PCNA; assay: AlphaLISA assay measuring monoubiquitinated PCNA in MDA-MB-436; assay type: cell-based; conditions: Homo sapiens, MDA-MB-436, monoubiquitinated PCNA, read-out: Alpha Lisa IC50
Description: Table 1 also indicates IC50 values for exemplary compounds in an AlphaLISA assay measuring monoubiquitinated PCNA in a BRCA1 mutant cell line (MDA-MB-436; column 7).

Sequence of USP1-UAF1 (O94782 whole entry): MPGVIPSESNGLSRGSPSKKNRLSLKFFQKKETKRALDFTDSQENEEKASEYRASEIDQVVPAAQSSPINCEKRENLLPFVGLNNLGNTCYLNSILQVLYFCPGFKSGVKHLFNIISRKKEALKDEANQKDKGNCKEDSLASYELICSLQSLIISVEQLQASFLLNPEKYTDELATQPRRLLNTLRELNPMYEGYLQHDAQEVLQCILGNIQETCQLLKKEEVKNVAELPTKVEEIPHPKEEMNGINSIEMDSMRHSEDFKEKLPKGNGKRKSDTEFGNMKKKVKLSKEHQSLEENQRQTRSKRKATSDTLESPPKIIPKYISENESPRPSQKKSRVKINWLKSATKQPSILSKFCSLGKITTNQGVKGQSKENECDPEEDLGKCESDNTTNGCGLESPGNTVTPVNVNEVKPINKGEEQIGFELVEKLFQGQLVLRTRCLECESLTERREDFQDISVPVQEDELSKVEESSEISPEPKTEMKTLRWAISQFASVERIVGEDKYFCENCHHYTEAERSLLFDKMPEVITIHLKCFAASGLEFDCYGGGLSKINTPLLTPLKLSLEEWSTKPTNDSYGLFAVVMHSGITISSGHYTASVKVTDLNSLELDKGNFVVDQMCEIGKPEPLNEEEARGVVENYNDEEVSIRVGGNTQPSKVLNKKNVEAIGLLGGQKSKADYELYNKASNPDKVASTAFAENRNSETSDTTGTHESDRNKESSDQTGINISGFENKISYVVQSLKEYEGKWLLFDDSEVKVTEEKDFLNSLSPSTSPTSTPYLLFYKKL
Sequence of USP1-UAF1 (Q8TAF3 whole entry partner): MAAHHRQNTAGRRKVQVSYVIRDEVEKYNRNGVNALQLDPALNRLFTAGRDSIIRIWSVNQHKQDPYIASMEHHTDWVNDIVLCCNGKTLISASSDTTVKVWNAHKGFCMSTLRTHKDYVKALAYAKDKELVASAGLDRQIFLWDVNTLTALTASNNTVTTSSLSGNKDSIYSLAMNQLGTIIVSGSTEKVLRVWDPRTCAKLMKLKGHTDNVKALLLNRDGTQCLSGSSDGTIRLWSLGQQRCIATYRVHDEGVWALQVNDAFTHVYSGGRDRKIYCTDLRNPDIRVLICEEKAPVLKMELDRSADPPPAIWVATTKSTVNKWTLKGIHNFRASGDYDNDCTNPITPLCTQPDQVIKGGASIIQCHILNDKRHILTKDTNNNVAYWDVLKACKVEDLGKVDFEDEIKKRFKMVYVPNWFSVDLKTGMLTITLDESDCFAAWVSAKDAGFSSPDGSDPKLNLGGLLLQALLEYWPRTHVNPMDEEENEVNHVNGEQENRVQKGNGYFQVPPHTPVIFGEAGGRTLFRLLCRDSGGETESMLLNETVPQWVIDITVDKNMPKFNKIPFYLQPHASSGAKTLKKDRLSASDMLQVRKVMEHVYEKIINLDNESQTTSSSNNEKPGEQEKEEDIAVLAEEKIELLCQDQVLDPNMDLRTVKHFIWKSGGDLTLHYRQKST

## CC(C)c1ccccc1-c1ncc2c(n1)n(Cc1ccc(-c3nc(C(F)(F)F)cn3C)cc1)c(=N)n2C1CCC1 [Example A-34, 7-cyclobutyl-2-(2-isopropylphenyl)-9-(4-(1-methyl-4-(trifluoromethyl)-1H-imidazol-2-yl)benzyl)-7,9-dihydro-8H-purin-8-imine]
[1]
  IC50: < 0.03 µM
[2]
  IC50: 0.1 to 0.25 µM
[3]
  IC50: 0.25 to 10 µM
[4]
  IC50: < 0.1 µM

## CC(C)c1ccccc1-c1nc(-c2ccccn2)c2c(n1)n(Cc1ccc(-c3nc(C(F)(F)F)cn3C)cc1)c(=N)n2C [Example A-35, 2-(2-isopropylphenyl)-7-methyl-9-(4-(1-methyl-4-(trifluoromethyl)-1H-imidazol-2-yl)benzyl)-6-(pyridin-2-yl)-7,9-dihydro-8H-purin-8-imine]
[1]
  IC50: 0.03 to 0.1 µM
[2]
  IC50: 0.25 to 10 µM
[3]
  IC50: 0.25 to 10 µM
[4]
  IC50: 0.1 to 0.25 µM

## Cc1nc(-c2ccccc2Cl)nc2c1n(C)c(=N)n2Cc1ccc(-c2nc(Cl)cn2C)cc1 [Example A-36, 9-(4-(4-chloro-1-methyl-1H-imidazol-2-yl)benzyl)-2-(2-chlorophenyl)-6,7-dimethyl-7,9-dihydro-8H-purin-8-imine]
[1]
  IC50: 0.1 to 10 µM
[2]
  IC50: 0.25 to 10 µM
[3]
  IC50: ≥ 10 µM
[4]
  IC50: 0.25 to 10 µM

## COc1cc(Cn2c(=N)n(C)c3cnc(-c4ccccc4C(C)C)nc32)ccc1-c1nc(C(F)(F)F)cn1C [Example A-37, 2-(2-isopropylphenyl)-9-(3-methoxy-4-(1-methyl-4-(trifluoromethyl)-1H-imidazol-2-yl)benzyl)-7-methyl-7,9-dihydro-8H-purin-8-imine]
[1]
  IC50: < 0.03 µM
[2]
  IC50: 0.25 to 10 µM
[3]
  IC50: ≥ 10 µM
[4]
  IC50: 0.1 to 0.25 µM

## Cc1nc(-c2ccccc2C(C)C)nc2c1n(C)c(=N)n2Cc1ccc(-c2nc(Cl)cn2C)cc1 [Example A-38, 9-(4-(4-chloro-1-methyl-1H-imidazol-2-yl)benzyl)-2-(2-isopropylphenyl)-6,7-dimethyl-7,9-dihydro-8H-purin-8-imine]
[1]
  IC50: < 0.03 µM
[2]
  IC50: < 0.1 µM
[3]
  IC50: 0.25 to 10 µM
[4]
  IC50: < 0.1 µM

## CC(C)c1ccccc1-c1nc(C(N)=O)c2c(n1)n(Cc1ccc(-c3nc(C(F)(F)F)cn3C)cc1)c(=N)n2C [Example A-41, 8-imino-2-(2-isopropylphenyl)-7-methyl-9-(4-(1-methyl-4-(trifluoromethyl)-1H-imidazol-2-yl)benzyl)-8,9-dihydro-7H-purine-6-carboxamide]
[1]
  IC50: 0.03 to 0.1 µM
[2]
  IC50: 0.25 to 10 µM
[3]
  IC50: 0.25 to 10 µM
[4]
  IC50: 0.25 to 10 µM

## C=C(C)c1ccc(F)cc1-c1nc(C)c2c(n1)n(Cc1ccc(-c3nc(C(F)(F)F)cn3C)cc1)c(=N)n2C [Example A-42, 2-(5-fluoro-2-(prop-1-en-2-yl)phenyl)-6,7-dimethyl-9-(4-(1-methyl-4-(trifluoromethyl)-1H-imidazol-2-yl)benzyl)-7,9-dihydro-8H-purin-8-imine]
[1]
  IC50: 0.03 to 0.1 µM
[2]
  IC50: 0.25 to 10 µM
[3]
  IC50: 0.25 to 10 µM
[4]
  IC50: 0.1 to 0.25 µM

## C=C(C)c1ccc(F)cc1-c1nc(C)c2c(n1)n(Cc1ccc(-c3nc(Cl)cn3C)cc1)c(=N)n2C [Example A-44, 9-(4-(4-chloro-1-methyl-1H-imidazol-2-yl)benzyl)-2-(5-fluoro-2-(prop-1-en-2-yl)phenyl)-6,7-dimethyl-7,9-dihydro-8H-purin-8-imine]
[1]
  IC50: 0.03 to 0.1 µM
[2]
  IC50: 0.25 to 10 µM
[3]
  IC50: 0.25 to 10 µM
[4]
  IC50: 0.25 to 10 µM

## CC(C)c1ccccc1-c1ncc2c(n1)n(CC1CCN(c3nc(C(F)(F)F)cn3C)CC1)c(=N)n2C [Example B-1, 2-(2-isopropylphenyl)-7-methyl-9-((1-(1-methyl-4-(trifluoromethyl)-1H-imidazol-2-yl)piperidin-4-yl)methyl)-7H-purin-8(9H)-imine]
[1]
  IC50: 0.1 to 10 µM
[2]
  IC50: 0.1 to 0.25 µM
[3]
  IC50: 0.25 to 10 µM
[4]
  IC50: 0.1 to 0.25 µM
